# Test results reported in paper PMC6502838, “Low potential enzymatic hydride transfer via highly cooperative and inversely functionalized flavin cofactors” (Nature Communications, 2019).
# Molecular target: T1, 2-Naphthoyl-CoA reductase (NCR) (uncultured Desulfobacterium sp., UniProt E1YD54)
# T1 construct: gene N47_G38220; Strep-tag fusion, E. coli host, monomer; TIM barrel 19-359, linker 360-400 with [4Fe-4S], FAD domain 401-503 + 626-674, alpha/beta domain 504-625
# T1 sequence (E1YD54 1-670): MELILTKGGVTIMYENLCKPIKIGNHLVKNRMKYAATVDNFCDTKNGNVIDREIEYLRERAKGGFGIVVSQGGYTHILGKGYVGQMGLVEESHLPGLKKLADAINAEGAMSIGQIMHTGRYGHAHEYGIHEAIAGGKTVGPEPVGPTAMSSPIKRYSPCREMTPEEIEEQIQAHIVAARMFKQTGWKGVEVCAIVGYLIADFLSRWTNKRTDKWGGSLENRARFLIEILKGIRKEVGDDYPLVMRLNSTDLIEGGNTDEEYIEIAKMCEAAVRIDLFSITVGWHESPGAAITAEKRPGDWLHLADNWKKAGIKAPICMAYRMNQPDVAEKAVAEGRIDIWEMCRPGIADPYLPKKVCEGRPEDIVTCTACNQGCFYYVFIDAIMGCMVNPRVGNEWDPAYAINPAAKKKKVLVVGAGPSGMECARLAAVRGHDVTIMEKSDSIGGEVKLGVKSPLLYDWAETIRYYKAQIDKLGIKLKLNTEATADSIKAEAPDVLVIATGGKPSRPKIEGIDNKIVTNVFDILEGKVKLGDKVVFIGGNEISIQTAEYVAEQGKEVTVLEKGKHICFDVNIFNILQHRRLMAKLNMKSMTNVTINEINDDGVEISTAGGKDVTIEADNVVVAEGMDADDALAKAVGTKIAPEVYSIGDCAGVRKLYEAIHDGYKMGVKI
# Test: X-ray crystal structure, soaked, […] A
# Format: binding
# Details: crystals soaked with 0.5 mM NCoA, pH 6.5-7.0, 2 h, 4 C; active site, stacked on FMN; incompletely occupied
structure (smiles),measurement,value
CC(C)(COP(=O)(O)OP(=O)(O)OC[C@H]1O[C@@H](n2cnc3c(N)ncnc32)[C@H](O)[C@@H]1OP(=O)(O)O)[C@@H](O)C(=O)NCCC(=O)NCCSC(=O)c1ccc2ccccc2c1 [NCoA],"X-ray crystal structure, soaked, 2.2 A",structure in complex with the substrate NCoA and the product DHNCoA were determined
